PubChem BioAssay AID248 (DTP/NCI, 2004)
Where “and” joins values, the source holds several entries; their conditions need not be identical. Equal values may be shown once. Inconclusive results and toxic doses are left out. No stated cut-off is given here; in the data, active means T/C of 150% or more; inactive means T/C below 125%.

Tested on: L1210 leukemia ip in BDF1 mice, survival T/C
Assay: NCI In Vivo Anticancer Drug Screen. Data for tumor model L1210 Leukemia (intraperitoneal) in B6D2F1 (BDF1) mice
Conditions: higher = longer survival
Method in brief: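 Survival endpoint. Drug-treated group vs vehicle group, expressed as T divided by C. Tumor passaged by transplantation.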

Measured: T/C

N=c1ccn2c(n1)OC1C(O)C(CO)OC12 (stereo not drawn)
inactive: endpoint: mean survival time, dose: 0.79 mg/kg/injection, schedule: Q03HX024 (ip), vehicle: water 110 % of control | endpoint: mean survival time, dose: 1.56 mg/kg/injection, schedule: Q01DX009 (ip), vehicle: water 103 % of control | endpoint: mean survival time, dose: 3.13 mg/kg/injection, schedule: Q01DX009 (ip), vehicle: water 110 % of control | endpoint: mean survival time, dose: 600.0 mg/kg/injection, schedule: Q01DX009 (ip), vehicle: clinical formulation 101 % of control | endpoint: median survival time, dose: 100.0 mg/kg/injection, schedule: Q04DX003 (oral), vehicle: water 111 % of control | endpoint: median survival time, dose: 200.0 mg/kg/injection, schedule: Q01DX001 (ip), vehicle: saline 122 % of control | endpoint: median survival time, dose: 200.0 mg/kg/injection, schedule: Q01DX001 (ip), vehicle: water 105 % of control | endpoint: median survival time, dose: 200.0 mg/kg/injection, schedule: Q03HX024 (oral), vehicle: water 116 % of control | endpoint: median survival time, dose: 216.0 mg/kg/injection, schedule: Q01DX009 (ip), vehicle: water 100 % of control and 105 % of control | endpoint: median survival time, dose: 360.0 mg/kg/injection, schedule: Q01DX009 (ip), vehicle: water 104 % of control and 111 % of control | endpoint: median survival time, dose: 400.0 mg/kg/injection, schedule: Q01DX001 (ip), vehicle: water 100 % of control | endpoint: median survival time, dose: 400.0 mg/kg/injection, schedule: Q01DX001 (oral), vehicle: water 120 % of control | endpoint: median survival time, dose: 400.0 mg/kg/injection, schedule: Q03HX024 (ip), vehicle: saline 88 % of control | endpoint: median survival time, dose: 400.0 mg/kg/injection, schedule: Q03HX024 (ip), vehicle: water 100 % of control | endpoint: median survival time, dose: 800.0 mg/kg/injection, schedule: Q01DX001 (ip), vehicle: water 120 % of control | endpoint: median survival time, dose: 800.0 mg/kg/injection, schedule: Q01DX009 (ip), vehicle: saline 94 % of control | endpoint: median survival time, dose: 800.0 mg/kg/injection, schedule: Q01DX009 (oral), vehicle: saline 122 % of control | endpoint: median survival time, dose: 800.0 mg/kg/injection, schedule: Q01DX009 (oral), vehicle: water 94 % of control | endpoint: median survival time, dose: 1600.0 mg/kg/injection, schedule: Q04DX003 (ip), vehicle: water 100 % of control
active: endpoint: mean survival time, dose: 100.0 mg/kg/injection, schedule: Q04DX003 (ip), vehicle: water 169 % of control | endpoint: mean survival time, dose: 118.0 mg/kg/injection, schedule: Q01DX009 (ip), vehicle: clinical formulation 203 % of control | endpoint: mean survival time, dose: 118.0 mg/kg/injection, schedule: Q01DX009 (ip), vehicle: saline 195 % of control | endpoint: mean survival time, dose: 177.0 mg/kg/injection, schedule: Q01DX009 (ip), vehicle: clinical formulation 213 % of control | endpoint: mean survival time, dose: 177.0 mg/kg/injection, schedule: Q01DX009 (ip), vehicle: saline 230 % of control | endpoint: mean survival time, dose: 200.0 mg/kg/injection, schedule: Q04DX003 (ip), vehicle: water 180 % of control | endpoint: mean survival time, dose: 266.0 mg/kg/injection, schedule: Q01DX009 (ip), vehicle: clinical formulation 250 % of control | endpoint: mean survival time, dose: 266.0 mg/kg/injection, schedule: Q01DX009 (ip), vehicle: saline 258 % of control | endpoint: mean survival time, dose: 400.0 mg/kg/injection, schedule: Q01DX009 (ip), vehicle: clinical formulation 254 % of control | endpoint: mean survival time, dose: 400.0 mg/kg/injection, schedule: Q01DX009 (ip), vehicle: saline 246 % of control | endpoint: mean survival time, dose: 400.0 mg/kg/injection, schedule: Q04DX003 (ip), vehicle: water 215 % of control | endpoint: mean survival time, dose: 1200.0 mg/kg/injection, schedule: Q01DX001 (ip), vehicle: saline 158 % of control | endpoint: mean survival time, dose: 1600.0 mg/kg/injection, schedule: Q01DX001 (ip), vehicle: saline 154 % of control and 161 % of control and 166 % of control | endpoint: mean survival time, dose: 2000.0 mg/kg/injection, schedule: Q01DX001 (ip), vehicle: saline 161 % of control and 170 % of control and 172 % of control | endpoint: median survival time, dose: 5.0 mg/kg/injection, schedule: Q03HX008 (ip), vehicle: saline 161 % of control | endpoint: median survival time, dose: 12.5 mg/kg/injection, schedule: Q01DX009 (ip), vehicle: saline 157 % of control | endpoint: median survival time, dose: 25.0 mg/kg/injection, schedule: Q01DX009 (ip), vehicle: saline 178 % of control | endpoint: median survival time, dose: 25.0 mg/kg/injection, schedule: Q03HX024 (ip), vehicle: water 170 % of control and 250 % of control | endpoint: median survival time, dose: 50.0 mg/kg/injection, schedule: Q01DX009 (ip), vehicle: saline 184 % of control | endpoint: median survival time, dose: 50.0 mg/kg/injection, schedule: Q01DX009 (ip), vehicle: steriod suspending solution 170 % of control | endpoint: median survival time, dose: 50.0 mg/kg/injection, schedule: Q03HX016 (ip), vehicle: saline 211 % of control | endpoint: median survival time, dose: 50.0 mg/kg/injection, schedule: Q03HX024 (ip), vehicle: saline 255 % of control | endpoint: median survival time, dose: 50.0 mg/kg/injection, schedule: Q03HX024 (ip), vehicle: water 205 % of control and 230 % of control | endpoint: median survival time, dose: 100.0 mg/kg/injection, schedule: Q01DX009 (ip), vehicle: saline 190 % of control and 205 % of control | endpoint: median survival time, dose: 100.0 mg/kg/injection, schedule: Q01DX009 (ip), vehicle: steriod suspending solution 185 % of control | endpoint: median survival time, dose: 100.0 mg/kg/injection, schedule: Q01DX009 (oral), vehicle: saline 166 % of control | endpoint: median survival time, dose: 100.0 mg/kg/injection, schedule: Q03HX008 (ip), vehicle: saline 155 % of control | endpoint: median survival time, dose: 100.0 mg/kg/injection, schedule: Q03HX016 (ip), vehicle: saline 233 % of control | endpoint: median survival time, dose: 100.0 mg/kg/injection, schedule: Q03HX024 (ip), vehicle: saline 322 % of control | endpoint: median survival time, dose: 100.0 mg/kg/injection, schedule: Q03HX024 (ip), vehicle: water 250 % of control and 270 % of control | endpoint: median survival time, dose: 108.0 mg/kg/injection, schedule: Q01DX008 (ip), vehicle: water 179 % of control | endpoint: median survival time, dose: 120.0 mg/kg/injection, schedule: Q01DX001 (ip), vehicle: water 166 % of control | endpoint: median survival time, dose: 160.0 mg/kg/injection, schedule: Q01DX001 (ip), vehicle: water 166 % of control | endpoint: median survival time, dose: 180.0 mg/kg/injection, schedule: Q01DX008 (ip), vehicle: water 182 % of control | endpoint: median survival time, dose: 200.0 mg/kg/injection, schedule: Q01DX009 (ip), vehicle: saline 219 % of control and 222 % of control and 234 % of control | endpoint: median survival time, dose: 200.0 mg/kg/injection, schedule: Q01DX009 (ip), vehicle: steriod suspending solution 235 % of control | endpoint: median survival time, dose: 200.0 mg/kg/injection, schedule: Q01DX009 (oral), vehicle: saline 188 % of control | endpoint: median survival time, dose: 200.0 mg/kg/injection, schedule: Q03HX008 (ip), vehicle: saline 177 % of control | endpoint: median survival time, dose: 200.0 mg/kg/injection, schedule: Q03HX016 (ip), vehicle: saline 255 % of control | endpoint: median survival time, dose: 200.0 mg/kg/injection, schedule: Q04DX003 (ip), vehicle: saline 177 % of control | endpoint: median survival time, dose: 200.0 mg/kg/injection, schedule: Q04DX003 (ip), vehicle: water 160 % of control | endpoint: median survival time, dose: 300.0 mg/kg/injection, schedule: Q01DX008 (ip), vehicle: water 202 % of control | endpoint: median survival time, dose: 300.0 mg/kg/injection, schedule: Q01DX009 (ip), vehicle: saline 221 % of control | endpoint: median survival time, dose: 400.0 mg/kg/injection, schedule: Q01DX009 (ip), vehicle: saline 223 % of control and 262 % of control and 311 % of control | endpoint: median survival time, dose: 400.0 mg/kg/injection, schedule: Q01DX009 (ip), vehicle: steriod suspending solution 315 % of control | endpoint: median survival time, dose: 400.0 mg/kg/injection, schedule: Q01DX009 (oral), vehicle: saline 205 % of control | endpoint: median survival time, dose: 400.0 mg/kg/injection, schedule: Q03HX008 (ip), vehicle: saline 188 % of control | endpoint: median survival time, dose: 400.0 mg/kg/injection, schedule: Q04DX003 (ip), vehicle: saline 150 % of control | endpoint: median survival time, dose: 400.0 mg/kg/injection, schedule: Q04DX003 (ip), vehicle: water 165 % of control | endpoint: median survival time, dose: 500.0 mg/kg/injection, schedule: Q01DX008 (ip), vehicle: water 164 % of control | endpoint: median survival time, dose: 500.0 mg/kg/injection, schedule: Q01DX009 (ip), vehicle: saline 211 % of control | endpoint: median survival time, dose: 600.0 mg/kg/injection, schedule: Q01DX009 (ip), vehicle: saline 232 % of control | endpoint: median survival time, dose: 700.0 mg/kg/injection, schedule: Q01DX009 (ip), vehicle: saline 156 % of control | endpoint: median survival time, dose: 800.0 mg/kg/injection, schedule: Q04DX003 (ip), vehicle: water 200 % of control | endpoint: median survival time, dose: 800.0 mg/kg/injection, schedule: Q04DX003 (oral), vehicle: saline 166 % of control | endpoint: median survival time, dose: 1600.0 mg/kg/injection, schedule: Q01DX001 (ip), vehicle: saline 155 % of control | endpoint: median survival time, dose: 1600.0 mg/kg/injection, schedule: Q01DX001 (ip), vehicle: water 155 % of control | endpoint: median survival time, dose: 1600.0 mg/kg/injection, schedule: Q04DX003 (oral), vehicle: saline 244 % of control | endpoint: median survival time, dose: 2000.0 mg/kg/injection, schedule: Q01DX001 (oral), vehicle: water 150 % of control
